Consider 23 compounds from US9828368B2 (MERCK SHARP & DOHME CORP., priority 2013, dated 2017).

pIC50: −log10 of the molar value.

In one test the target is human orexin-2 receptor (Homo sapiens (Human), UniProt O43614). Put plainly: FLIPR Ca2+ flux assay, hOX2R. The note with it: CHO cells expressing human orexin-2 receptor; agonist 70 pM Ala-6,12 orexin-A. The format is cell-based. Here is the method: In a typical experiment the OX1 and OX2 receptor antagonistic activity of the compounds of the present invention was determined in accordance with the following experimental method. For intracellular calcium measurements, Chinese hamster ovary (CHO) cells expressing the rat orexin-1 receptor or the human orexin-2 receptor, are grown in Iscove's modified DMEM containing 2 mM L-glutamine, […], 1% hypoxanthine-thymidine supplement, 100 U/ml penicillin, 100 μg/ml streptomycin and 10% heat-inactivated fetal calf serum (FCS). The cells are seeded at 20,000 cells/well into Becton-Dickinson black 384-well clear bottom sterile plates coated with poly-D-lysine. All reagents were from GIBCO-Invitrogen Corp. The seeded plates are incubated overnight at 37° C. and 5% CO2. Ala-6,12 human orexin-A as the agonist is prepared as a 1 mM stock solution in 1% bovine serum albumin (BSA) and diluted in assay buffer (HBSS containing 20 mM HEPES, 0.1% BSA and 2.5 mM probenecid, pH7.4) for use in the assay at a final concentration of 70 pM. Test compounds are prepared as 10 mM stock solution in DMSO, then diluted in 384-well plates, first in DMSO, then assay buffer. On the day of the assay, cells are washed 3 times with 100 μl assay buffer and then incubated for 60 min (37° C., 5% CO2) in 60 μl assay buffer containing 1 μM Fluo-4AM ester, 0.02% pluronic acid, and 1% BSA. The dye loading solution is then aspirated and cells are washed 3 times with 100 μl assay buffer. 30 μl of that same buffer is left in each well. Within the Fluorescent Imaging Plate Reader (FLIPR, Molecular Devices), test compounds are added to the plate in a volume of 25 μl, incubated for 5 min and finally 25 μl of agonist is added. Fluorescence is measured for each well at 1 second intervals for 5 minutes and the height of each fluorescence peak is compared to the height of the fluorescence peak induced by 70 pM Ala-6,12 orexin-A with buffer in place of antagonist. […] The intrinsic orexin receptor antagonist activity of a compound which may be used in the present invention may be determined by these assays.
Sequence of human orexin-2 receptor (O43614 whole entry): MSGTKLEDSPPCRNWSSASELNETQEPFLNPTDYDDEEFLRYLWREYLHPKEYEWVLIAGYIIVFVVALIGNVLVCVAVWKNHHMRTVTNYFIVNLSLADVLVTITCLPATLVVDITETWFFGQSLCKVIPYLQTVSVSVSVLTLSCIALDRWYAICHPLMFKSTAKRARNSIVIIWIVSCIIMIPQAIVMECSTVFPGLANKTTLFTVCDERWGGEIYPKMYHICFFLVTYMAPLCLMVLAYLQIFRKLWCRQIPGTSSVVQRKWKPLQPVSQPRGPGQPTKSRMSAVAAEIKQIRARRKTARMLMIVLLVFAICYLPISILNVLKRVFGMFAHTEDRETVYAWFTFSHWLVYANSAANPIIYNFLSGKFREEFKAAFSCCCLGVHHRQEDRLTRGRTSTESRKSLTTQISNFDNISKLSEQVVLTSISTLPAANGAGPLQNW

A further test deals with hOX1R (Homo sapiens, UniProt O43613). Put plainly: FLIPR Ca2+ flux assay, hOX1R. The format is cell-based. The settings on record: CHO cells; agonist 70 pM Ala-6,12 orexin-A; rat orexin-1 receptor; read-out: hOX1R FLIPR IC50.

Consider `CC[C@](C)(O)c1nc([C@@H]2CC[C@@H](C)N(C(=O)c3cscc3-n3nccn3)C2)oc1C` [Example 46, (4-(2H-1,2,3-triazol-2-yl)thiophen-3-yl)((2R,5R)-5-(4-((S)-2-hydroxybutan-2-yl)-5-methyloxazol-2-yl)-2-methylpiperidin-1-yl)methanone], for which the pIC50 on human orexin-2 receptor was 7.43; on hOX1R, 5.33.
The corresponding values for `CC[C@@](C)(O)c1nc([C@@H]2CC[C@@H](C)N(C(=O)c3cscc3-n3nccn3)C2)oc1C` [Example 47, (4-(2H-1,2,3-triazol-2-yl)thiophen-3-yl)((2R,5R)-5-(4-((R)-2-hydroxybutan-2-yl)-5-methyloxazol-2-yl)-2-methylpiperidin-1-yl)methanone] are 7.74 and 5.01.
Take `C[C@@H]1CC[C@@H](c2nc(C(C)(C)O)c(Cl)o2)CN1C(=O)c1ccccc1-n1nccn1` [Example 52, (2-(2H-1,2,3-Triazol-2-yl)phenyl)((2R,5R)-5-(5-chloro-4-(2-hydroxypropan-2-yl)oxazol-2-yl)-2-methylpiperidin-1-yl)methanone]: the pIC50 at human orexin-2 receptor is 6.58; at hOX1R, 5.50.
Consider `C[C@@H]1CC[C@@H](c2nc(C(C)(C)O)c(C(F)F)o2)CN1C(=O)c1ccccc1-n1nccn1` [Example 53, (2-(2H-1,2,3-Triazol-2-yl)phenyl)((2R,5R)-5-(5-(difluoromethyl)-4-(2-hydroxypropan-2-yl)oxazol-2-yl)-2-methylpiperidin-1-yl)methanone], for which the pIC50 at human orexin-2 receptor was 7.37; on hOX1R, 6.50.
The corresponding values for `C[C@@H]1CC[C@@H](c2nc(C(C)(C)O)c(C(F)(F)F)o2)CN1C(=O)c1ccccc1-n1nccn1` [Example 54, (2-(2H-1,2,3-Triazol-2-yl)phenyl)((2R,5R)-5-(4-(2-hydroxypropan-2-yl)-5-(trifluoromethyl)oxazol-2-yl)-2-methylpiperidin-1-yl)methanone] are 7.38 and 6.62.
In the same order, the values of `Cc1nc([C@@H]2CC[C@@H](C)N(C(=O)c3ccccc3-n3nccn3)C2)oc1C(C)(C)O` [Example 55, (2-(2H-1,2,3-Triazol-2-yl)phenyl)((2R,5R)-5-(5-(2-hydroxypropan-2-yl)-4-methyloxazol-2-yl)-2-methylpiperidin-1-yl)methanone] are 7.20 and 7.05.
In the same order, the values of `COC(=O)c1nc([C@@H]2CC[C@@H](C)N(C(=O)c3ccccc3-n3nccn3)C2)oc1-c1ccccc1` [Example 56, Methyl 2-((3R,6R)-1-(2-(2H-1,2,3-triazol-2-yl)benzoyl)-6-methylpiperidin-3-yl)-5-phenyloxazole-4-carboxylate] are 5.80 and 6.44.
As to `C[C@@H]1CC[C@@H](c2nc(CO)c(-c3ccccc3)o2)CN1C(=O)c1ccccc1-n1nccn1` [Example 57, (2-(2H-1,2,3-Triazol-2-yl)phenyl)((2R,5R)-5-(4-(hydroxymethyl)-5-phenyloxazol-2-yl)-2-methylpiperidin-1-yl)methanone], the pIC50 was 5.93 at human orexin-2 receptor and 6.43 at hOX1R.
In the same order, the values of `C[C@@H]1CC[C@@H](c2nc(CF)c(-c3ccccc3)o2)CN1C(=O)c1ccccc1-n1nccn1` [Example 58, (2-(2H-1,2,3-Triazol-2-yl)phenyl)((2R,5R)-5-(4-(fluoromethyl)-5-phenyloxazol-2-yl)-2-methylpiperidin-1-yl)methanone] are 6.80 and 6.66.
In the same order, the values of `COCc1nc([C@@H]2CC[C@@H](C)N(C(=O)c3ccccc3-n3nccn3)C2)oc1-c1ccccc1` [Example 59, (2-(2H-1,2,3-Triazol-2-yl)phenyl)((2R,5R)-5-(4-(methoxymethyl)-5-phenyloxazol-2-yl)-2-methylpiperidin-1-yl)methanone] are 6.46 and 7.00.
In the same order, the values of `C[C@@H]1CC[C@@H](c2nc(C(C)(C)O)c(-c3ccccc3)o2)CN1C(=O)c1ccccc1-n1nccn1` [Example 60, (2-(2H-1,2,3-Triazol-2-yl)phenyl)((2R,5R)-5-(4-(2-hydroxypropan-2-yl)-5-phenyloxazol-2-yl)-2-methylpiperidin-1-yl)methanone] are 7.08 and 7.12.
Regarding `C[C@@H]1CC[C@@H](c2nc(C(N)=O)c(-c3ccccc3)o2)CN1C(=O)c1ccccc1-n1nccn1` [Example 61, 2-((3R,6R)-1-(2-(2H-1,2,3-Triazol-2-yl)benzoyl)-6-methylpiperidin-3-yl)-5-phenyloxazole-4-carboxamide], the pIC50 on human orexin-2 receptor was 6.71; on hOX1R, 7.19.
In the same order, the values of `C[C@@H]1CC[C@@H](c2nc(CC(C)(C)O)c(-c3ccccc3)o2)CN1C(=O)c1ccccc1-n1nccn1` [Example 68, (2-(2H-1,2,3-Triazol-2-yl)phenyl)((2R,5R)-5-(4-(2-hydroxy-2-methylpropyl)-5-phenyloxazol-2-yl)-2-methylpiperidin-1-yl)methanone] are 7.21 and 7.02.
In the case of `COC(C)(C)Cc1nc([C@@H]2CC[C@@H](C)N(C(=O)c3ccccc3-n3nccn3)C2)oc1-c1ccccc1` [Example 69, (2-(2H-1,2,3-Triazol-2-yl)phenyl)((2R,5R)-5-(4-(2-methoxy-2-methylpropyl)-5-phenyl-oxazol-2-yl)-2-methylpiperidin-1-yl)methanone], the pIC50 on human orexin-2 receptor was 6.54; at hOX1R it was 6.41.
The corresponding values for `C[C@@H]1CC[C@@H](c2nc(CCO)c(-c3ccccc3)o2)CN1C(=O)c1ccccc1-n1nccn1` [Example 70, (2-(2H-1,2,3-Triazol-2-yl)phenyl)((2R,5R)-5-(4-(2-hydroxyethyl)-5-phenyloxazol-2-yl)-2-methylpiperidin-1-yl)methanone] are 7.23 and 7.42.
In the case of `C[C@@H]1CC[C@@H](c2nc(CCF)c(-c3ccccc3)o2)CN1C(=O)c1ccccc1-n1nccn1` [Example 71, (2-(2H-1,2,3-triazol-2-yl)phenyl)((2R,5R)-5-(4-(2-fluoroethyl)-5-phenyloxazol-2-yl)-2-methylpiperidin-1-yl)methanone], the pIC50 at human orexin-2 receptor was 7.21; at hOX1R, 7.15.
Consider `Cc1ccc(-n2nccn2)c(C(=O)N2C[C@H](c3ncc(C)o3)CC[C@H]2C)c1` [Example 72, (5-Methyl-2-(2H-1,2,3-triazol-2-yl)phenyl)((2R,5R)-2-methyl-5-(5-methyloxazol-2-yl)piperidin-1-yl)methanone], for which the pIC50 is 6.36 at human orexin-2 receptor and 5.34 on hOX1R.
In the same order, the values of `C[C@@H]1CC[C@@H](c2ncc(C(C)(C)C)o2)CN1C(=O)c1ccccc1-n1nccn1` [Example 73, (2-(2H-1,2,3-Triazol-2-yl)phenyl)((2R,5R)-5-(5-(tert-butyl)oxazol-2-yl)-2-methylpiperidin-1-yl)methanone] are 7.52 and 6.82.
The corresponding values for `C[C@@H]1CC[C@@H](c2ncc(-c3ccccc3)o2)CN1C(=O)c1ccccc1-n1nccn1` [Example 74, (2-(2H-1,2,3-Triazol-2-yl)phenyl)((2R, 5R)-2-methyl-5-(5-phenyloxazol-2-yl)piperidin-1-yl)methanone] are 6.95 and 7.26.
`C[C@@H]1CC[C@@H](c2ncc(C3CCC3)o2)CN1C(=O)c1ccccc1-n1nccn1` [Example 75, (2-(2H-1,2,3-Triazol-2-yl)phenyl)((2R, 5R)-5-(5-cyclobutyloxazol-2-yl)-2-methylpiperidin-1-yl)methanone]: the figures for the pIC50 at human orexin-2 receptor and at hOX1R were 7.80 and 7.23, respectively.
Take `C[C@@H]1CC[C@@H](c2ncc(C3CC3)o2)CN1C(=O)c1ccccc1-n1nccn1` [Example 76, (2-(2H-1,2,3-Triazol-2-yl)phenyl)((2R, 5R)-5-(5-cyclopropyloxazol-2-yl)-2-methylpiperidin-1-yl)methanone]: the pIC50 on human orexin-2 receptor was 7.48; on hOX1R, 6.01.
Consider `C[C@@H]1CC[C@@H](c2nc(-c3ccccc3)c(-c3ccccc3)o2)CN1C(=O)c1ccccc1-n1nccn1` [Example 77, (2-(2H-1,2,3-Triazol-2-yl)phenyl)((2R,5R)-5-(4,5-diphenyloxazol-2-yl)-2-methylpiperidin-1-yl)methanone], for which the pIC50 on human orexin-2 receptor was 6.29; at hOX1R, 6.35.
The corresponding values for “((2R,5R)-5-(4-(2-Hydroxypropan-2-yl)-5- methyloxazol-2-yl)-2-methylpiperidin-1-yl)(2- methoxyphenyl)methanone [Example 30]” are 7.53 and less than 5.00.
